Results reported in patent US20240092784A1, “CONDENSED HETEROCYCLIC COMPOUND” (NISSAN CHEMICAL CORPORATION, priority 2020, published 2024).

What was measured:
human SPR [1] = target: T1, human SPR (Homo sapiens (Human), UniProt P35270); assay: Evaluation Example 1: Measurement of human SPR inhibitory activity (sepiapterin absorbance at 420 nm); format: biochemical; details: 240 minutes at room temperature
Protocol: Human SPR was prepared as described below. The full-length human SPR (1-261) cDNA was purchased from Eurofins Genomics as an artificially synthesized plasmid containing a DNA sequence optimized for the E. coli expression system so that the sequence of the expressed protein after transcription and translation matches the sequence described in UniprotKB (P35270).
Linearized insert and vector were prepared by PCR using primers designed for amplification of human SPR cDNA and primers designed to contain the thrombin recognition sequence of pET28a (Novagen) and a polyhistidine tag. Cloning was performed using In-Fusion (registered trademark) HD Cloning Kit (TaKaRa) to thereby construct a human SPR expression plasmid. The resultant human SPR expression plasmid was transformed into BL21 (DE3) competent cells (INVITROGEN).
The cells were inoculated into LB medium (1% triptone, 0.5% yeast extract, 1% sodium chloride) containing […] of kanamycin, and then precultured at 37° C. overnight. The precultured cells were inoculated into TB medium (1.2% triptone, 2.4% yeast extract, 9.4% dipotassium hydrogen phosphate, 2.2% potassium dihydrogen phosphate, 0.8% glycerin) containing […] of kanamycin, and the cultured at 37° C., to thereby induce SPR expression with 0.5 mM IPTG for four hours. After the induction, the cells were collected by centrifugation at 6,000 G for 30 minutes and washed with PBS, and the washing was discarded. The washed cells were suspended in buffer solution A (20 mM MES, pH 6.5, 100 mM sodium chloride, 1 mM DTT, 5 mM imidazole). Subsequently, the cell suspension was subjected to ultrasonic treatment to thereby homogenize the cells. The cell homogenate was clarified by centrifugation at 30,000 G for 60 minutes and then filtered with a […]. The filtrate was allowed to pass through HisTrapFF 5 mL column (GE Healthcare). The resin was washed with buffer A, and then gradient elution was performed with buffer B (20 mM MES, pH 6.5, 100 mM sodium chloride, 1 mM DTT, 500 mM imidazole). Thrombin was added to a fraction containing the SPR protein, and the mixture was dialyzed in buffer A overnight, to thereby cleave the tag. After removal of the thrombin by with Benzamidine Sepharose 4 FF (GE Healthcare), the resultant product was allowed to pass through the HisTrapFF 5 mL column, to thereby remove the tag, followed by concentration with Amicon Ultra 10,000 NMWL (Merck Millipore). The concentrate was purified by gel filtration using HiLoad 16/60 Superdex 75 pg (GE Healthcare) equilibrated with buffer C (20 mM MES, pH 6.5, 100 mM sodium chloride, 1 mM DTT). The fraction containing SPR protein was concentrated and then cryopreserved at −80° C.
Human SPR inhibitory activity was measured by using a 384-well low adsorption clear plate (Greiner) with buffer D containing 100 mM Tris-HCl (pH 7.5) (Thermo Fisher Scientific) and 0.01% bovine serum albumin (Sigma). A compound was diluted with DMSO to a concentration of 1 mM, and a 1 μL aliquot of the preparation was diluted with 250 μL of buffer D. The thus-diluted compound was dispensed into the 384-well plate at […]. Thereafter, human SPR was diluted with buffer D to 200 ng/mL and then dispensed into the 384-well plate at 20 μL/well. Subsequently, 40 μL of ultrapure water containing 120 μM Sepiapterin (WuXi AppTec) and 120 μM NADPH (Nacalai) was added to each well, and mixed with a vortex mixer, to thereby initiate the reaction. The reaction mixture was incubated at room temperature for 240 minutes, and the reaction was terminated by addition of 10 μL of ultrapure water containing 2% formic acid (Nacalai). In order to determine the amount of sepiapterin after termination of the reaction, the absorbance at 420 nm was measured by applying the 384-well plate to EnSpire multimode plate reader (Perkin Elmer). The percent inhibition (%) of human SPR by the test compound was calculated by the following formula. […]

human SPR [2] = target: T1, human SPR; assay: Evaluation Example 2: Measurement of human SPR inhibitory activity (seven concentrations, sepiapterin absorbance at 420 nm); format: biochemical; details: Evaluation Example 2, seven concentrations 0.14 nM to 100 nM, 240 minutes at room temperature, read-out: IC50
How it was run: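 Reactions ran 240 min at room temperature in 100 mM Tris-HCl pH 7.5 with 0.01% BSA. They contained tag-cleaved, E. coli-expressed full-length human SPR (diluted to 150 ng/mL), seven compound concentrations from 0.14 to 100 nM, and sepiapterin/NADPH added as a 120 μM/160 μM solution. Inhibition was calculated from sepiapterin absorbance at 420 nm.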

T1 sequence (P35270 whole entry): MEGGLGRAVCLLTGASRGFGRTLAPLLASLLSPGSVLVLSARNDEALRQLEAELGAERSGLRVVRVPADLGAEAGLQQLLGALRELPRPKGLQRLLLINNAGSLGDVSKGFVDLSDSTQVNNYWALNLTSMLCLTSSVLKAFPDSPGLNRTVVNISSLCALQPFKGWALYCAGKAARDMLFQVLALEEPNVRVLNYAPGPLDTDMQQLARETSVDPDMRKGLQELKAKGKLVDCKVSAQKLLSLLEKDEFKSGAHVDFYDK

Row | SMILES | IC50 (human SPR [1]) | IC50 (human SPR [2])
1 | CCOC(=O)c1cc2n(CC(C)(C)C)c(=O)c(C(=O)NC3CC3)c(O)n2n1 [Synthesis Example 1, Ethyl 6-(cyclopropylcarbamoyl)-7-hydroxy-4-neopentyl-5-oxo-4,5-dihydropyrazolo[1,5-a]pyrimidine-2-carboxylate] | < 1000 nM | –
2 | CC(C)(C)Cn1c(=O)c(C(=O)NC2CC2)c(O)n2nc(C(=O)O)cc12 [Synthesis Example 2, 6-(Cyclopropylcarbamoyl)-7-hydroxy-4-neopentyl-5-oxo-4,5-dihydropyrazolo[1,5-a]pyrimidine-2-carboxylic acid] | < 1000 nM | –
3 | CC(C)(C)Cn1c(=O)c(C(=O)NC2CC2)c(O)n2nc(NC(=O)OC(C)(C)C)cc12 [Synthesis Example 3, Tert-butyl (6-(cyclopropylcarbamoyl)-7-hydroxy-4-neopentyl-5-oxo-4,5-dihydropyrazolo[1,5-a]pyrimidin-2-yl)carbamate] | < 1000 nM | –
4 | CCOC(=O)c1cnn2c(O)c(C(=O)NC3CC3)c(=O)n(CC(C)C)c12 [Synthesis Example 5, Ethyl 6-(cyclopropylcarbamoyl)-7-hydroxy-4-isobutyl-5-oxo-4,5-dihydropyrazolo[1,5-a]pyrimidine-3-carboxylate] | < 1000 nM | –
5 | CC(C)Cn1c(=O)c(C(=O)NC2CC2)c(O)n2ncc(C=O)c12 [Synthesis Example 7, N-Cyclopropyl-3-formyl-7-hydroxy-4-isobutyl-5-oxo-4,5-dihydropyrazolo[1,5-a]pyrimidine-6-carboxamide] | < 1000 nM | –
6 | CC(C)Cn1c(=O)c(C(=O)NC2CC2)c(O)n2ncc(/C=C/C(=O)O)c12 [Synthesis Example 9, (E)-3-(6-(Cyclopropylcarbamoyl)-7-hydroxy-4-isobutyl-5-oxo-4,5-dihydropyrazolo[1,5-a]pyrimidin-3-yl)acrylic acid] | < 1000 nM | –
7 | CC(C)(C)Cn1c(=O)c(C(=O)NC2CC2)c(O)n2nc(Br)cc12 [Synthesis Example 11, 2-Bromo-N-cyclopropyl-7-hydroxy-4-neopentyl-5-oxo-4,5-dihydropyrazolo[1,5-a]pyrimidine-6-carboxamide] | < 1000 nM | –
8 | COC(=O)c1cnc(Nc2cc3n(CC(C)(C)C)c(=O)c(C(=O)NC4CC4)c(O)n3n2)cn1 [Synthesis Example 19, Methyl 5-((6-(cyclopropylcarbamoyl)-7-hydroxy-4-neopentyl-5-oxo-4,5-dihydropyrazolo[1,5-a]pyrimidin-2-yl)amino)pyrazine-2-carboxylate] | < 1000 nM | –
9 | CC(C)(C)Cn1c(=O)c(C(=O)NC2CC2)c(O)n2nc(Nc3cnc(C(=O)O)cn3)cc12 [Synthesis Example 20, 5-((6-(Cyclopropylcarbamoyl)-7-hydroxy-4-neopentyl-5-oxo-4,5-dihydropyrazolo[1,5-a]pyrimidin-2-yl)amino)pyrazine-2-carboxylic acid] | < 1000 nM | –
10 | CC(C)Cn1c(=O)c(C(=O)NC2CC2)c(O)n2nc(Br)cc12 [Synthesis Example 22, 2-Bromo-N-cyclopropyl-7-hydroxy-4-isobutyl-5-oxo-4,5-dihydropyrazolo[1,5-a]pyrimidine-6-carboxamide] | < 1000 nM | –
11 | CC(C)Cn1c(=O)c(C(=O)NC2CC2)c(O)n2nc(-c3cccnc3N)cc12 [Synthesis Example 24, 2-(2-Aminopyridin-3-yl)-N-cyclopropyl-7-hydroxy-4-isobutyl-5-oxo-4,5-dihydropyrazolo[1,5-a]pyrimidine-6-carboxamide] | < 1000 nM | –
12 | CC(C)(C)Cn1c(=O)c(C(=O)NC2CCC2)c(O)n2nc(Br)cc12 [Synthesis Example 25, 2-Bromo-N-cyclobutyl-7-hydroxy-4-neopentyl-5-oxo-4,5-dihydropyrazolo[1,5-a]pyrimidine-6-carboxamide] | < 1000 nM | –
13 | CC(C)(C)Cn1c(=O)c(C(=O)NC2CCC2)c(O)n2nc(Nc3cnccn3)cc12 [Synthesis Example 26, N-Cyclobutyl-7-hydroxy-4-neopentyl-5-oxo-2-(pyrazin-2-ylamino)-4,5-dihydropyrazolo[1,5-a]pyrimidine-6-carboxamide] | < 1000 nM | –
14 | CC1(Cn2c(=O)c(C(=O)NC3CC3)c(O)n3nc(Br)cc23)CCOCC1 [Synthesis Example 27, 2-Bromo-N-cyclopropyl-7-hydroxy-4-((4-methyltetrahydro-2H-pyran-4-yl)methyl)-5-oxo-4,5-dihydropyrazolo[1,5-a]pyrimidine-6-carboxamide] | < 1000 nM | –
15 | CC(C)Cn1c(=O)c(C(=O)NC2CC2)c(O)n2ncc(/C=C/C(=O)N(C)Cc3ccn(C)n3)c12 [compound 604, (E)-N-Cyclopropyl-7-hydroxy-4-isobutyl-3-(3-(methyl((1-methyl-1H-pyrazol-3-yl)methyl)amino)-3-oxoprop-1-en-1-yl)-5-oxo-4,5-dihydropyrazolo[1,5-a]pyrimidine-6-carboxamide] | – | 0.92 nM
16 | CC[C@H]1CCCN1C(=O)/C=C/c1cnn2c(O)c(C(=O)NC3CC3)c(=O)n(CC(C)C)c12 [compound 605, (S,E)-N-Cyclopropyl-3-(3-(2-ethylpyrrolidin-1-yl)-3-oxoprop-1-en-1-yl)-7-hydroxy-4-isobutyl-5-oxo-4,5-dihydropyrazolo[1,5-a]pyrimidine-6-carboxamide] | – | 1.2 nM
17 | CC(C)Cn1c(=O)c(C(=O)NC2CC2)c(O)n2ncc(/C=C/C(=O)N3CCOC[C@@H]3c3ccccc3)c12 [compound 606, (S,E)-N-Cyclopropyl-7-hydroxy-4-isobutyl-5-oxo-3-(3-oxo-3-(3-phenylmorpholino)prop-1-en-1-yl)-4,5-dihydropyrazolo[1,5-a]pyrimidine-6-carboxamide] | – | 1.32 nM
18 | CC(C)Cn1c(=O)c(C(=O)NC2CC2)c(O)n2ncc(/C=C/C(=O)N3CCC[C@@H]3c3ccccc3)c12 [compound 607, (R,E)-N-Cyclopropyl-7-hydroxy-4-isobutyl-5-oxo-3-(3-oxo-3-(2-phenylpyrrolidin-1-yl)prop-1-en-1-yl)-4,5-dihydropyrazolo[1,5-a]pyrimidine-6-carboxamide] | – | 1.67 nM
19 | Cc1nn2c(O)c(C(=O)NC3CC3)c(=O)n(CC(C)C)c2c1/C=C/C(=O)N1CC2C(C1)C2(F)F (stereo not drawn) [compound 608, (E)-N-Cyclopropyl-3-(3-(6,6-difluoro-3-azabicyclo[3.1.0]hexan-3-yl)-3-oxoprop-1-en-1-yl)-7-hydroxy-4-isobutyl-2-methyl-5-oxo-4,5-dihydropyrazolo[1,5-a]pyrimidine-6-carboxamide] | – | 1.07 nM
20 | CC[C@@H]1CCCN1C(=O)/C=C/c1c(C)nn2c(O)c(C(=O)NC3CC3)c(=O)n(CC(C)C)c12 [compound 610, (R,E)-N-Cyclopropyl-3-(3-(2-ethylpyrrolidin-1-yl)-3-oxoprop-1-en-1-yl)-7-hydroxy-4-isobutyl-2-methyl-5-oxo-4,5-dihydropyrazolo[1,5-a]pyrimidine-6-carboxamide] | – | 1.64 nM
21 | Cc1nn2c(O)c(C(=O)NC3CC3)c(=O)n(CC(C)C)c2c1/C=C/C(=O)N1CCC[C@@H]1C(C)(C)O [compound 611, (R,E)-N-Cyclopropyl-7-hydroxy-3-(3-(2-(2-hydroxypropan-2-yl)pyrrolidin-1-yl)-3-oxoprop-1-en-1-yl)-4-isobutyl-2-methyl-5-oxo-4,5-dihydropyrazolo[1,5-a]pyrimidine-6-carboxamide] | – | 1.22 nM
